In patent publication US20240238448A1, “USE OF CHEMICAL EPIGENETIC MODIFIERS TO MODULATE GENE […] VECTORS” (The University of North Carolina at Chapel Hill, priority 2021, published 2024):
Read-outs that look alike come from different tables or passages of the source.

Columns and labels:
[1] = test system: transgene (firefly luciferase) expression in HEK293T.17 cells; test: ZF-CEM technology AAV transgene expression, Promega Dual Luciferase Assay in HEK293T.17 cells; assay type: cell-based, human
Experimental: At a higher viral genomes per cell dose of virus, higher fold change in transgene (firefly luciferase) expression was seen. HEK293T.17 cells that stably express Renilla Luciferase (for normalization purposes) were plated at 7.5K cells per well in a 96 well plate. The next day, the cells were infected with ZF-CEM technology virus at either 2K or 20K vg/cell. After 24 hours, the cells were treated with varying concentrations of CEM87. After an additional 48 hours (72 hours post initial AAV infection), a Promega Dual Luciferase Assay was run to determine the levels of luciferase.
At 20K viral genomes per cell, ZF-CEM technology was able to increase the levels of transgene (firefly luciferase) expression in a statistically significant manner as early as 24 hours and continue to have effects up to 96 hours post CEM87 addition (FIG. 16). The highest fold change in luciferase expression was seen 24 hours after CEM87 dosage (48 hours after AAV infection). HEK293T.17 cells that stably express Renilla Luciferase (for normalization purposes) were plated at 7.5K cells per well in a 96 well plate. The next day, the cells were infected with ZF-CEM technology virus at 20K vg/cell. After 24 hours, the cells were treated with 200 nM CEM87. A Promega Dual Luciferase Assay was run every 24 hours post CEM87 dosage to determine the levels of luciferase over time.
At 20K viral genomes per cell, the impact of ZF-CEM technology on transgene expression was reversible through washout or washout with the addition of FK506, a chemical capable of competing off CEM87 from the transgene it is recruited to (FIG. 17). Reversibility was achieved within 24 hours of removal of CEM87 through washout or washout and treatment with 100× more FK506 ([…]). HEK293T.17 cells that stably express Renilla Luciferase (for normalization purposes) were plated at 7.5K cells per well in a 96 well plate. The next day, the cells were infected with ZF-CEM technology virus at 20K vg/cell. After 24 hours, the cells were treated with 200 nM CEM87. After 48 hours, wells were either washed out with fresh media or washed out with fresh media that contained […]. A Promega Dual Luciferase Assay was run every 24 hours post washout/FK506 dosage to determine the levels of luciferase over time.
HEK293T.17 cells that stably express Renilla Luciferase (for normalization purposes) were plated at 7.5K cells per well in a 96 well plate. The next day, the cells were infected with ZF-CEM technology virus at 20K vg/cell. After 24 hours, the cells were treated with 200 nM CEM114. After 48 hours, a Promega Dual Luciferase Assay was run to determine the levels of luciferase.

[2] = test system: AAV2-BD-JET-GFP genomes in 293-ZF-FKBP cells; test: CEM activation of AAV2-BD-JET-GFP vectors in 293-ZF-FKBP cells, GFP fluorescence by flow cytometry; assay type: cell-based, human; conditions: AAV vectors without the engrafted ZF BD, or AAV2-BD-JET-GFP in WT 293 cells
Experimental: It was then examined whether CEM87 can control recombinant AAV transgene expression in transduced cells. HEK293T.17 cells that stably expresses ZF-FKBP were transduced with an AAV2 vector that contains a zinc finger DNA binding domain recognition sequence specific to the array in ZF-FKBP upstream of a JET promoter and an eGPF reporter gene downstream of the promoter. After 24 h the cell media was replaced with media containing either 200 nM CEM87 or a DMSO control. 48 hours post CEM87 addition, cells were imaged and flow cytometry run to determine the percent eGFP expression.
Some of these experiments relied on a 293 cell line harboring a stable constitutive ZF-FKBP cassette (293-ZF-FKBP) and transduction by AAV2-JET-GFP vectors harboring the ZF binding domain recognition sequence (BD) upstream of the constitutive JET promoter (FIG. 5). Two chemicals were investigated in these initial studies, CEM87 and CEM114 which bind ZF-FKBP and act to recruit BRD4 or CBP/p300, respectively. […] Following the transduction of AAV2-BD-Jet-GFP vectors to 293-ZF-FKBP cells, increasing concentrations of CEMs (87 or 114) were added to the culture medium. Two days later, GFP fluorescence was analyzed by flow cytometry.

[3] = Pharmacokinetics of CEM87 in mice; conditions: mouse, in vivo
Experimental: Pharmacokinetic Data of CEM87 in Mice: Initial and encouraging pharmacokinetics (PK) analysis of CEM87 were conducted. Mice were administered a single 3 mg/kg dose of CEM87 via intravenous (IV) injection or a single dose of 30 mg/kg of CEM87 through the intraperitoneal (IP) route (n=9 per group, 3 mice per time point).

Row | Structure (SMILES) | effect on AAV transgene expression (in words) ([1]; 20K vg/cell, 200 nM CEM114, 48 hours) | drug response in control experiments [2] | AUC(0-t) ([3]; single 3 mg/kg IV, read-out: exposure (AUC0-24)) [ng·h/mL] | half-life ([3]; single 3 mg/kg IV, read-out: half-life (t1/2) (converted)) [h] | Cmax ([3]; single 3 mg/kg IV, read-out: maximal concentration (Cmax)) [ng/mL] | bioavailability ([3]; single 30 mg/kg IP) [%] | AUC(0-t) ([3]; single 30 mg/kg IP, read-out: AUC0-24) [ng·h/mL] | Cmax ([3]; single 30 mg/kg IP, read-out: Cmax) [ng/mL] | half-life ([3]; single 30 mg/kg IP, read-out: t1/2 (converted)) [h] | chemical control of transgene (firefly luciferase) expression (in words) ([1]; 2K or 20K vg/cell, varying concentrations, 48 hours after CEM87 (72 hours post AAV infection)) | earliest time of statistically significant increase of transgene (firefly luciferase) expression post CEM87 addition ([1]; 20K vg/cell, 200 nM CEM87) [h] | time up to which effects on luciferase expression continue post CEM87 addition ([1]; 20K vg/cell, 200 nM CEM87) | time of highest fold change in luciferase expression after CEM87 dosage ([1]; 20K vg/cell, 200 nM CEM87, 48 hours after AAV infection) [h] | time to reversibility of transgene expression after removal of CEM87 ([1]; 20K vg/cell, 200 nM CEM87 for 48 hours, then washout or washout with 100× more FK506) [h]
1 | CO[C@H]1C[C@@H](C)C/C(C)=C/[C@@H](CCCSCCC(=O)NCCOCCOCCOCCn2cc(COc3ccc(CCc4nc5cc(-c6c(C)noc6C)ccc5n4CCN4CCOCC4)cc3F)nn2)C(=O)C[C@H](O)[C@@H](C)[C@@H](/C(C)=C/[C@@H]2CC[C@@H](O)[C@H](OC)C2)OC(=O)[C@@H]2CCCCN2C(=O)C(=O)[C@]2(O)O[C@H]1[C@@H](OC)C[C@H]2C [CEM114] | increase AAV transgene expression | – | – | – | – | – | – | – | – | – | – | – | – | –
2 | COc1ccc2c(c1)C(c1ccc(Cl)cc1)=N[C@@H](CC(=O)NCc1cn(CCOCCOCCOCCNC(=O)CCSCCC[C@@H]3/C=C(\C)C[C@H](C)C[C@H](OC)[C@H]4O[C@@](O)(C(=O)C(=O)N5CCCC[C@H]5C(=O)O[C@H](/C(C)=C/[C@@H]5CC[C@@H](O)[C@H](OC)C5)[C@H](C)[C@@H](O)CC3=O)[C@H](C)C[C@@H]4OC)nn1)c1nnc(C)n1-2 [CEM87] | – | no drug response | 27500 | ~4 | 34100 | ~50 | 114000 | 15500 | 4 | dose dependent chemical control | 24 | up to 96 hours | 24 | ≤ 24
